The text below walks through data of patent publication US12577190B2, “Method for producing polyol-based esters of ketocarboxylic acids” (KetoLipix Therapeutics GmbH, priority 2019, dated 2026).

Data set [1] deals with pancreatin (Panzytrat 40,000). Here is the method:
Both media are from the company Biorelevant®, Ltd. in Great Britain. In addition, in some experiments porcine pancreas is added (Panzytrat® 40,000, Fa. Allergan).
The pancreatin is used in the form of the commercially available product Panzytrat® 40,000 from the Allergan company. The whole mixture is stirred on a hot plate at 50° C.; the course of the reaction is determined and monitored by continuously recording the acid number over time.

For data set [2] the following is noted: even if several grams are taken; cited from earlier work.

As for 3-oxobutyric acid di-diglycerol ester, in data set [1], the cleavage by pancreatin entry is listed as “cleaved”.
On the same count and under the same terms, the result for 3-oxobutyric acid mono-diglycerol ester reads “cleaved”; that for 3-oxobutyric acid tri-diglycerol ester, “cleaved”.
Turning to `CC(O)CC(=O)O` (stereo not shown) [3-hydroxybutyric acid], the duration of ketosis entry in data set [2] is “three to four”.
